The test system of data set [1] is CWR22Rv1 cells. Briefly: Cell growth assay (cell numbers), CWR22Rv1. Format: cell-based.
The test system of data set [2] is C4-2-V7 cells. Kind of data set: Cell growth assay (cell numbers), C4-2-V7. Format: cell-based. The note with it: 48 hours, FIG. 7D.
Data set [3] concerns AR variants. Kind of data set: AR variant protein degradation (cycloheximide, MG132, ubiquitin IP) in C4-2B MDVR cells. Format: cell-based. The note with it: FIG. 16. On the procedure:
(§1) “AR-Variants” represents a combination of all forms of AR.
(§2) To determine if the small molecule modulators affect AR-V7 protein expression via protein degradation, CWR22Rv1 and C4-2B MDVR cells were treated with cycloheximide (CHX) and the half-life of AR-V7 protein was measured.
After 0, 2, 4, and 8 hours, whole cell lysate was collected and subjected to Western blot. Half-life of AR-V7 was then calculated.
Whole cell lysate was subsequently collected and subjected to Western blot.
Whole cell lysate was immunoprecipitated with an AR antibody and blot with ubiquitin and AR antibodies.

Data set [4] relates to C4-2B MDVR cells. Briefly: Cell growth assay (cell numbers), C4-2B MDVR. Format: cell-based. Particulars: C4-2B MDVR, 48 hours.
For data set [5], the system named is AR variants. Kind of data set: AR variant protein degradation (cycloheximide, MG132, ubiquitin IP) in CWR22Rv1 cells. Format: cell-based. The note with it: FIG. 15. On the procedure:
as §1, §2
After 0, 2, 4, and 8 hours, whole cell lysate was collected and subjected to Western blot. The half-life of AR-V7 was then calculated.
Subsequently, the whole cell lysate was collected and subjected to Western blot.
For the data shown in FIG. 15C, CWR22Rv1 cells were treated with Nic, Compound 7, or Compound 31. Subsequently, whole cell lysate was immunoprecipitated with an AR antibody and blotted with ubiquitin and AR antibodies.

The subject of data set [6] is C4-2BMDVR cells. Kind of data set: ELISA cell death (apoptosis) assay. Format: cell-based. Particulars: compound alone, analogs compared with niclosamide, FIG. 8. How it is done:
To further examine the anti-cancer effects of these compounds, an ELISA cell death assay was performed.
In general terms: ELISA stands for enzyme-linked immunosorbent assay.

Data set [7] has as its system AR-V3. Briefly: PSA-luc assay in C4-2B cells, AR-V3. Format: cell-based. Particulars: FBS, 1 μM overnight, FIG. 14C. From the text: C4-2B cells were cotransfected with pcDNA, with or without AR-V1, AR-V3, AR-V7, AR-V9 or AR-V12, and with PSA-E/P-luciferase plasmids in FBS condition.
The subject of data set [8] is C4-2B AbiR cells. Kind of data set: Cell growth assay (cell numbers), C4-2B AbiR. Format: cell-based. Particulars: 48 hours, FIG. 7C.
Data set [9] can be described thus: in vivo. Particulars: for Cmax: rat plasma, p.o. 200 mg/kg. How it is done:
Blood samples were obtained at the time points indicated in FIG. 18 (0 minutes, 15 minutes, 30 minutes, 1 hour, 1.5 hours, 2 hours, 4 hours, 6 hours, 8 hours, and 24 hours) and the plasma was isolated for LC-MS analysis.

Setting [10] is: male, Sprague-Dawley, rat, in vivo, po, 200 mg/kg.
Where [11] appears, read: male, Sprague-Dawley, rat, plasma, po, 200 mg/kg.

One compound from patent US20200009088A1, “COMPOSITIONS AND METHODS FOR TREATING ANDROGEN-INDEPENDENT CANCER” (The Regents of the University of California, priority 2017, published 2020) can be followed below.

For orientation: AUC(0-inf) means total exposure, with the tail of the curve extrapolated. A word on the AUC(0-t): it is exposure summed from dosing to a finite time, without extrapolation to infinity. A high value points to more exposure. Usually Tmax stands for the time at which the peak concentration occurs. The Cmax is the peak of the concentration-time curve. In the case of `O=C(Nc1ccc([N+](=O)[O-])cc1Cl)c1cc(Cl)ccc1O` [niclosamide, (5-chloro-N-2-chloro-4-nitro-phenyl)-2-hydroxybenzamide, reference compound], the “cell proliferation, combination with enzalutamide (MDV)” value in data set [1] (CWR22Rv1, 0.5 μM + enzalutamide, 48 hours, FIG. 7A) is “further inhibited”; in data set [2] (C4-2-V7, 0.5 μM + enzalutamide), “further inhibited”; in [4] (0.5 μM + enzalutamide, FIG. 7B), “further inhibited”; in [8] (0.5 μM + enzalutamide), “further inhibited”. In addition, the cell growth result in [1] (CWR22Rv1, 0.5 μM, 48 hours, FIG. 7A) is recorded as “significantly inhibited”; in [1] (CWR22Rv1, 48 hours, increasing doses of niclosamide/analogs, FIG. 6) it was “able to inhibit cell growth in a dose-dependent manner”; in data set [2] (C4-2-V7, 0.5 μM) it was “significantly inhibited”; in [4] (0.5 μM, FIG. 7B), “significantly inhibited”; in data set [4] (increasing doses of niclosamide/analogs, FIG. 6), “able to inhibit cell growth in a dose-dependent manner”; in data set [8] (0.5 μM), “significantly inhibited”. Moreover, the “AR variant degradation via the proteasome-ubiquitination system” value in data set [3] and in data set [5] was “degraded” in each case. Besides, the cell apoptosis result in data set [6] was “significantly induced”. Further, in [7], the “AR-V3-mediated PSA-luc activity” value is on record as “inhibited”. Further, the “AUC_% Extrap_obs” value in data set [9] (setting [10]) is given as 3.67 +/− 3.73%. For the same compound, the HL_Lambda_z in data set [9] (setting [10]) amounted to 328.09 ± 173.05 min. The compound further gave an AUC(0-inf) in [9] (setting [11]) of 28.4 µM·h. The compound also had an exposure AUC(0-t) in data set [9] (setting [11]) of 4.14 µM·h. Besides, in data set [9] (setting [11]), the time to peak (Tmax) was 25 min. Moreover, the Cmax in [9] (male, Sprague-Dawley, rat, plasma, po, 200 mg/kg, Cmax) turned out to be 1560 nM; in data set [9], 1560 nM.
